Here are results for two compounds from ChEMBL document CHEMBL5576143, “Discovery of CW-3308 as a Potent, Selective, and Orally Efficacious PROTAC Degrader of BRD9” (J Med Chem, 2024).

The nature of data set [1]: Metabolic stability in dog liver microsome assessed as half-life at 1 uM preincubated for 5 mins followed by NADPH addition and measured upto 60 mins by LC-MS/MS analysis. The format is ADME, Canis lupus familiaris. The settings on record: liver microsomes, time < 65 min. (Liver microsomes are vesicles of endoplasmic reticulum, rich in cytochrome P450 enzymes.)
Data set [2] is described as follows: Metabolic stability in monkey liver microsome assessed as half-life at 1 uM preincubated for 5 mins followed by NADPH addition and measured upto 60 mins by LC-MS/MS analysis. The format is ADME, Macaca mulatta. As to conditions: rhesus monkey, liver microsomes, time < 65 min.
A short description of data set [3]: in vitro. As to conditions: rat, liver microsomes.
The nature of data set [4]: in vitro. As to conditions: human, liver microsomes.
A short description of data set [5]: Volume of distribution at steady state in rat at 3 mg/kg, po or 1 mg/kg, iv. The data set is classed as ADME, organism-based. As to conditions: in vivo.
Data set [6] can be described thus: in vitro. As to conditions: mouse, liver microsomes.
Data set [7] is described as follows: Oral bioavailability in rat at 3 mg/kg. The settings on record: in vivo. The data set is classed as ADME, organism-based.
Data set [8] is described as follows: in vitro. The settings on record: human, Caco-2.
Data set [9] can be described thus: AUC in rat at 3 mg/kg, po or 1 mg/kg, iv. The settings on record: in vivo. The data set is classed as ADME, organism-based.
The nature of data set [10]: Half-life in rat at 3 mg/kg, po or 1 mg/kg, iv. The format is ADME, organism-based. As to conditions: in vivo.
Data set [11] in a line: Cmax in rat at 3 mg/kg, po or 1 mg/kg, iv. The data set is classed as ADME, organism-based. As to conditions: in vivo.
Data set [12] is described as follows: in vitro. As to conditions: human, Caco-2. This is another data set of the same source.

As a reminder, the half-life is the time in which the quantity being followed falls by half. For orientation: bioavailability means the share of a dose that reaches the circulation, judged against a reference dose that is usually intravenous. As a reminder, the Papp B→A is how fast a substance crosses the layer from the basolateral side. One may read the AUC as concentration integrated over time. The Cmax is the maximum level reached in the sampled fluid or tissue. In general, Papp A→B refers to the apparent permeability from the apical to the basolateral side of a cell layer.

Consider `CN1Cc2cc3c(cc2C1)C(=O)N(C1CCC(=O)NC1=O)C3=O` (centres undefined), for which the half-life at 1 µM in data set [1] is greater than 60 min; in data set [2], 54 min. Further, the half-life at 1 h, 1 µM in “in vitro [3]”, in the data set “in vitro [4]” and in the data set “in vitro [6]” was greater than 60 min each time. Besides, the Vdss in data set [5] was 5 L/kg. Besides, the bioavailability in data set [7] amounted to 70%.

Consider `CN1Cc2cc3c(cc2C1)C(=O)N(C1CCC(=O)NC1=O)C3` (centres undefined), for which the half-life at 1 µM in [1] and in data set [2] was greater than 60 min each time. Besides, in the data set “in vitro [8]”, the Papp B→A at 2 h, 10 µM worked out at 6.8 ×10⁻⁶ cm/s. Also, the AUC in data set [9] was 1500 ng·h/mL. Further, the half-life at 1 h, 1 µM in “in vitro [3]”, in “in vitro [4]” and in “in vitro [6]” was greater than 60 min each time. In addition, the half-life in [10] was 132 min. In data set [11], this compound returned a Cmax of 276 ng/mL. In [5], this compound yielded a Vdss of 2.9 L/kg. In addition, the bioavailability in data set [7] is 60%. This compound also displayed a Papp A→B at 2 h, 10 µM in “in vitro [12]” of 2.55 ×10⁻⁶ cm/s.
